Experimental data: article PMC5218480 (PLoS ONE, 2017)

System: MV-4-11 cells
Test: Gene expression microarray analysis (Affymetrix PrimeView) and GSEA
Type: cell-based, human
Design: RFU PODN (11730768_x_at) / Fold change /veh PODN (11730768_x_at) / RFU LINC00158 (11744669_a_at) / Fold change /veh LINC00158 (11744669_a_at) / RFU DUSP10 (11751237_a_at) / Fold change /veh DUSP10 (11751237_a_at) / RFU ID3 (11757404_x_at) / Fold change /veh ID3 (11757404_x_at) / RFU PLEKHG5 (11737974_s_at) / Fold change /veh PLEKHG5 (11737974_s_at) / RFU LRRC4B (11730491_at) / Fold change /veh LRRC4B (11730491_at) / RFU GIMAP4 (11747438_a_at) / Fold change /veh GIMAP4 (11747438_a_at) / RFU KRT8 (11758183_x_at) / Fold change /veh KRT8 (11758183_x_at) / RFU CNN1 (11734310_a_at) / Fold change /veh CNN1 (11734310_a_at) / RFU VPS37D (11726825_at) / Fold change /veh VPS37D (11726825_at) / RFU C10orf10 (11716522_x_at) / Fold change /veh C10orf10 (11716522_x_at) / RFU KIR2DL2 /// KIR2DL4 /// KIR2DL5A /// KIR2DL5B /// KIR2DS1 /// KIR2DS2 /// KIR2DS3 /// KIR2DS4 /// KIR3DL3 /// KIR3DL3 /// KIR3DS1 (11738374_at) / Fold change /veh KIR2DL2 /// KIR2DL4 /// KIR2DL5A /// KIR2DL5B /// KIR2DS1 /// KIR2DS2 /// KIR2DS3 /// KIR2DS4 /// KIR3DL3 /// KIR3DL3 /// KIR3DS1 (11738374_at) / RFU C1QL1 (11718748_at) / Fold change /veh C1QL1 (11718748_at) / RFU TMPRSS4 (11747572_a_at) / Fold change /veh TMPRSS4 (11747572_a_at) / RFU HAMP (11756126_x_at) / Fold change /veh HAMP (11756126_x_at) / RFU RNFT2 (11725882_a_at) / Fold change /veh RNFT2 (11725882_a_at) / RFU NR4A2 (11747474_a_at) / Fold change /veh NR4A2 (11747474_a_at) / RFU ABCC12 (11746883_a_at) / Fold change /veh ABCC12 (11746883_a_at) / RFU TMEM136 (11760407_x_at) / Fold change /veh TMEM136 (11760407_x_at) / RFU CLDN22 /// WWC2 (11732394_at) / Fold change /veh CLDN22 /// WWC2 (11732394_at) / RFU HLA-DPB1 (11760878_x_at) / Fold change /veh HLA-DPB1 (11760878_x_at) / RFU SPINT1 (11716480_a_at) / Fold change /veh SPINT1 (11716480_a_at) / RFU GAP43 (11754022_s_at) / Fold change /veh GAP43 (11754022_s_at) / RFU A4GNT (11735810_at) / Fold change /veh A4GNT (11735810_at) / RFU PRB3 (11715151_x_at) / Fold change /veh PRB3 (11715151_x_at) / RFU TUBB4B (11761932_at) / Fold change /veh TUBB4B (11761932_at) / RFU CAPN14 (11732068_a_at) / Fold change /veh CAPN14 (11732068_a_at) / RFU TMCC2 (11721928_a_at) / Fold change /veh TMCC2 (11721928_a_at) / RFU IRGQ (11745062_a_at) / Fold change /veh IRGQ (11745062_a_at) / RFU FAM174B (11720279_a_at) / Fold change /veh FAM174B (11720279_a_at) / RFU TMPRSS4 (11748680_a_at) / Fold change /veh TMPRSS4 (11748680_a_at) / RFU FAM212B (11763350_a_at) / Fold change /veh FAM212B (11763350_a_at) / RFU PLEKHG5 (11743358_a_at) / Fold change /veh PLEKHG5 (11743358_a_at) / RFU ZSCAN30 (11745921_a_at) / Fold change /veh ZSCAN30 (11745921_a_at) / RFU CMKLR1 (11741424_a_at) / Fold change /veh CMKLR1 (11741424_a_at) / RFU LOC101060620 /// MAPK8IP1 (11723275_at) / Fold change /veh LOC101060620 /// MAPK8IP1 (11723275_at) / RFU SPTSSB (11747773_x_at) / Fold change /veh SPTSSB (11747773_x_at) / RFU PRSS12 (11739890_at) / Fold change /veh PRSS12 (11739890_at) / RFU BIN1 (11741810_x_at) / Fold change /veh BIN1 (11741810_x_at) / RFU WNT11 (11732464_a_at) / Fold change /veh WNT11 (11732464_a_at) / RFU C10orf10 (11716521_a_at) / Fold change /veh C10orf10 (11716521_a_at) / RFU C5orf56 (11738089_at) / Fold change /veh C5orf56 (11738089_at) / RFU CYB561 (11721691_x_at) / Fold change /veh CYB561 (11721691_x_at) / RFU ANKRD19P (11752326_a_at) / Fold change /veh ANKRD19P (11752326_a_at) / RFU OR2T12 /// OR2T33 /// OR2T8 (11738714_s_at) / Fold change /veh OR2T12 /// OR2T33 /// OR2T8 (11738714_s_at) / RFU VCAN (11748164_a_at) / Fold change /veh VCAN (11748164_a_at) / RFU JSRP1 (11732532_at) / Fold change /veh JSRP1 (11732532_at) / RFU KRTAP10-11 (11738290_x_at) / Fold change /veh KRTAP10-11 (11738290_x_at) / RFU MYO3A (11730013_a_at) / Fold change /veh MYO3A (11730013_a_at) / RFU EBF3 (11725865_a_at) / Fold change /veh EBF3 (11725865_a_at) / RFU CAMK2N1 (11719241_x_at) / Fold change /veh CAMK2N1 (11719241_x_at) / RFU C5orf56 (11738088_a_at) / Fold change /veh C5orf56 (11738088_a_at) / RFU OLFML3 (11715873_a_at) / Fold change /veh OLFML3 (11715873_a_at) / RFU LOC100653217 /// NTM (11731650_a_at) / Fold change /veh LOC100653217 /// NTM (11731650_a_at) / RFU MAPK11 (11762145_a_at) / Fold change /veh MAPK11 (11762145_a_at) / RFU FIZ1 (11724087_x_at) / Fold change /veh FIZ1 (11724087_x_at) / RFU OASL (11726364_x_at) / Fold change /veh OASL (11726364_x_at) / RFU SOX15 (11748057_x_at) / Fold change /veh SOX15 (11748057_x_at) / RFU CD79A (11719716_a_at) / Fold change /veh CD79A (11719716_a_at) / RFU HIST1H1D (11736915_at) / Fold change /veh HIST1H1D (11736915_at) / RFU CASKIN2 (11723855_a_at) / Fold change /veh CASKIN2 (11723855_a_at) / RFU LOC730098 (11760151_x_at) / Fold change /veh LOC730098 (11760151_x_at) / RFU OR4N2 (11742367_at) / Fold change /veh OR4N2 (11742367_at) / RFU PRRT2 (11749266_a_at) / Fold change /veh PRRT2 (11749266_a_at) / RFU SNX32 (11753110_a_at) / Fold change /veh SNX32 (11753110_a_at) / RFU CDHR5 (11726645_a_at) / Fold change /veh CDHR5 (11726645_a_at) / RFU RCAN1 (11760418_a_at) / Fold change /veh RCAN1 (11760418_a_at) / RFU FAM167A (11723789_a_at) / Fold change /veh FAM167A (11723789_a_at) / RFU FAM26E (11764081_at) / Fold change /veh FAM26E (11764081_at) / RFU ISYNA1 (11749810_s_at) / Fold change /veh ISYNA1 (11749810_s_at) / RFU ACY1 (11761880_at) / Fold change /veh ACY1 (11761880_at) / RFU 11764098_at / Fold change /veh 11764098_at / RFU SAMD14 (11745864_x_at) / Fold change /veh SAMD14 (11745864_x_at) / RFU NPB (11741838_a_at) / Fold change /veh NPB (11741838_a_at) / RFU TMPRSS6 (11731388_a_at) / Fold change /veh TMPRSS6 (11731388_a_at) / RFU KRTAP10-2 (11738614_at) / Fold change /veh KRTAP10-2 (11738614_at) / RFU ARHGAP8 /// PRR5-ARHGAP8 (11727945_x_at) / Fold change /veh ARHGAP8 /// PRR5-ARHGAP8 (11727945_x_at) / RFU KRTAP5-7 /// NADSYN1 (11734609_at) / Fold change /veh KRTAP5-7 /// NADSYN1 (11734609_at) / RFU RASL12 (11751679_a_at) / Fold change /veh RASL12 (11751679_a_at) / RFU CDKN2B (11736163_a_at) / Fold change /veh CDKN2B (11736163_a_at) / RFU PRF1 (11729649_at) / Fold change /veh PRF1 (11729649_at) / RFU, ZNF638 /// ZNF638-IT1 / Fold change vs veh, ZNF638 /// ZNF638-IT1 / RFU, PANK3 / Fold change vs veh, PANK3 / RFU, SH3YL1 / Fold change vs veh, SH3YL1 / RFU, ZEB2 / Fold change vs veh, ZEB2 / RFU, NRIP1 / Fold change vs veh, NRIP1 / RFU, PTTG1IP / Fold change vs veh, PTTG1IP / RFU, CAPN2 / Fold change vs veh, CAPN2 / RFU, MED14 / Fold change vs veh, MED14 / RFU, SNORA58 / Fold change vs veh, SNORA58 / RFU, C1orf63 / Fold change vs veh, C1orf63 / RFU, LRRFIP1 / Fold change vs veh, LRRFIP1 / RFU, NDUFAF7 / Fold change vs veh, NDUFAF7 / RFU, SLC12A2 / Fold change vs veh, SLC12A2 / RFU, IBTK / Fold change vs veh, IBTK / RFU, ESF1 / Fold change vs veh, ESF1 / Fold change vs veh, TMEM50B / RFU, TAOK1 / Fold change vs veh, TAOK1 / RFU, ACBD3 / Fold change vs veh, ACBD3 / RFU, TMA16 / Fold change vs veh, TMA16 / RFU, RWDD3 / Fold change vs veh, RWDD3 / RFU, BCAT1 / Fold change vs veh, BCAT1 / RFU, EDEM3 / Fold change vs veh, EDEM3 / RFU, TMEM33 / Fold change vs veh, TMEM33 / RFU, WDR75 / Fold change vs veh, WDR75 / RFU, AHCTF1 / Fold change vs veh, AHCTF1 / RFU, TFRC / Fold change vs veh, TFRC / RFU, ZDHHC17 / Fold change vs veh, ZDHHC17 / RFU, NOM1 / Fold change vs veh, NOM1 / RFU, ARL8B / Fold change vs veh, ARL8B / RFU, ZBTB11 / Fold change vs veh, ZBTB11 / RFU, TAMM41 / Fold change vs veh, TAMM41 / RFU, KIAA1704 /// LOC100996395 / Fold change vs veh, KIAA1704 /// LOC100996395 / RFU, ING1 / Fold change vs veh, ING1 / RFU, TRMT61B / Fold change vs veh, TRMT61B / RFU, FUBP3 / Fold change vs veh, FUBP3 / RFU, TP53 / Fold change vs veh, TP53 / RFU, TNKS2 / Fold change vs veh, TNKS2 / RFU, ZFP14 / Fold change vs veh, ZFP14 / RFU, ACTR2 / Fold change vs veh, ACTR2 / RFU, PPP3R1 / Fold change vs veh, PPP3R1 / RFU, PIK3R1 / Fold change vs veh, PIK3R1 / RFU, HNRNPA1 / Fold change vs veh, HNRNPA1 / RFU, RNF170 / Fold change vs veh, RNF170 / RFU, ZNF28 / Fold change vs veh, ZNF28 / RFU, RNGTT / Fold change vs veh, RNGTT / RFU, OGT / Fold change vs veh, OGT / RFU, BRD1 / Fold change vs veh, BRD1 / RFU, MARS / Fold change vs veh, MARS / RFU, ZNF655 / Fold change vs veh, ZNF655 / RFU, FAHD1 / Fold change vs veh, FAHD1 / RFU, BDP1 / Fold change vs veh, BDP1 / RFU, LRRCC1 / Fold change vs veh, LRRCC1 / RFU, ARID1A / Fold change vs veh, ARID1A / RFU, ZNF146 / Fold change vs veh, ZNF146 / RFU, ZNF330 / Fold change vs veh, ZNF330 / RFU, GPN3 / Fold change vs veh, GPN3 / RFU, C9orf123 / Fold change vs veh, C9orf123 / RFU, N4BP2L2 / Fold change vs veh, N4BP2L2 / RFU, ARFIP1 / Fold change vs veh, ARFIP1 / RFU, FAM179B / Fold change vs veh, FAM179B / RFU, BCL10 / Fold change vs veh, BCL10 / RFU, UHRF1BP1L / Fold change vs veh, UHRF1BP1L / RFU, BET1 / Fold change vs veh, BET1 / RFU, CNOT2 / Fold change vs veh, CNOT2 / RFU, ZNF268 / Fold change vs veh, ZNF268 / Fold change vs veh, ZNF507 / RFU, DGCR2 / Fold change vs veh, DGCR2 / RFU, WDSUB1 / Fold change vs veh, WDSUB1 / Fold change vs veh, HSP90B1 /// MIR3652 / RFU, ADSS / Fold change vs veh, ADSS / RFU, GK / Fold change vs veh, GK / RFU, ZNF148 / Fold change vs veh, ZNF148 / RFU, TAF9 / Fold change vs veh, TAF9 / RFU, SLC1A5 / Fold change vs veh, SLC1A5 / RFU, SLMO2 / Fold change vs veh, SLMO2 / RFU, ABCC4 / Fold change vs veh, ABCC4 / RFU, LOC101060439 /// RAP1B / Fold change vs veh, LOC101060439 /// RAP1B / RFU, RFX7 / Fold change vs veh, RFX7 / RFU, GTPBP10 / Fold change vs veh, GTPBP10 / RFU, CNEP1R1 / Fold change vs veh, CNEP1R1 / RFU, BIVM-ERCC5 /// ERCC5 / Fold change vs veh, BIVM-ERCC5 /// ERCC5 / RFU, ILF3 / Fold change vs veh, ILF3 / RFU 11762660_at / Fold change /veh 11762660_at / RFU VCAN (11757783_s_at) / Fold change /veh VCAN (11757783_s_at) / RFU DDX43 (11728927_at) / Fold change /veh DDX43 (11728927_at) / RFU KRT8 (11758188_x_at) / Fold change /veh KRT8 (11758188_x_at) / RFU NKD1 (11759106_at) / Fold change /veh NKD1 (11759106_at) / RFU SRD5A1 (11742802_a_at) / Fold change /veh SRD5A1 (11742802_a_at) / RFU TPSAB1 /// TPSB2 (11721975_s_at) / Fold change /veh TPSAB1 /// TPSB2 (11721975_s_at) / RFU GSTM3 (11746129_a_at) / Fold change /veh GSTM3 (11746129_a_at) / RFU IL23R (11737362_x_at) / Fold change /veh IL23R (11737362_x_at) / RFU TMEM51 (11727254_a_at) / Fold change /veh TMEM51 (11727254_a_at) / RFU PIWIL2 (11732686_x_at) / Fold change /veh PIWIL2 (11732686_x_at) / RFU ORM1 (11744905_x_at) / Fold change /veh ORM1 (11744905_x_at) / RFU CCDC152 (11743942_at) / Fold change /veh CCDC152 (11743942_at) / RFU ECM1 (11717891_a_at) / Fold change /veh ECM1 (11717891_a_at) / RFU IL23R (11748794_a_at) / Fold change /veh IL23R (11748794_a_at) / RFU TNFAIP8L3 (11732012_x_at) / Fold change /veh TNFAIP8L3 (11732012_x_at) / RFU MBOAT4 (11741988_at) / Fold change /veh MBOAT4 (11741988_at) / RFU 11764193_at / Fold change /veh 11764193_at / RFU TMEM53 (11763286_at) / Fold change /veh TMEM53 (11763286_at) / RFU MAGEB2 (11727129_at) / Fold change /veh MAGEB2 (11727129_at) / RFU TMEM200A (11744735_a_at) / Fold change /veh TMEM200A (11744735_a_at) / RFU CCDC152 (11751479_a_at) / Fold change /veh CCDC152 (11751479_a_at) / RFU FAM211A (11726209_a_at) / Fold change /veh FAM211A (11726209_a_at) / RFU RGS16 (11746705_a_at) / Fold change /veh RGS16 (11746705_a_at) / RFU VCAN (11755009_s_at) / Fold change /veh VCAN (11755009_s_at) / RFU RHOB (11743442_s_at) / Fold change /veh RHOB (11743442_s_at) / RFU RGS16 (11720943_a_at) / Fold change /veh RGS16 (11720943_a_at) / RFU RGS16 (11720944_at) / Fold change /veh RGS16 (11720944_at) / RFU, VPS4B / Fold change vs veh, VPS4B / RFU, CREB1 / Fold change vs veh, CREB1 / RFU, DNAJC13 / Fold change vs veh, DNAJC13 / RFU, GNAQ / Fold change vs veh, GNAQ / RFU, CDK5R1 / Fold change vs veh, CDK5R1 / RFU, ZRANB3 / Fold change vs veh, ZRANB3 / RFU, CUL4A / Fold change vs veh, CUL4A / RFU, CCNY / Fold change vs veh, CCNY / RFU, UFL1 / Fold change vs veh, UFL1 / RFU, COG3 / Fold change vs veh, COG3 / RFU, DIAPH2 / Fold change vs veh, DIAPH2 / RFU, SKA2 / Fold change vs veh, SKA2 / RFU, AFF3 / Fold change vs veh, AFF3 / RFU, LMF1 / Fold change vs veh, LMF1 / RFU, IPO11 / Fold change vs veh, IPO11 / RFU, DFFB / Fold change vs veh, DFFB / RFU, FOXP1 / Fold change vs veh, FOXP1 / RFU, CARD8 / Fold change vs veh, CARD8 / RFU, STRN3 / Fold change vs veh, STRN3 / RFU, ADK / Fold change vs veh, ADK / RFU, RASSF2 / Fold change vs veh, RASSF2 / RFU, WIPF1 / Fold change vs veh, WIPF1 / RFU, LARP1B / Fold change vs veh, LARP1B / RFU, RASA1 / Fold change vs veh, RASA1 / RFU, RB1 / Fold change vs veh, RB1 / RFU, PPFIA1 / Fold change vs veh, PPFIA1 / RFU, MAT2A / Fold change vs veh, MAT2A / RFU, CCT5 / Fold change vs veh, CCT5 / RFU, WDR92 / Fold change vs veh, WDR92 / RFU, CUX1 / Fold change vs veh, CUX1 / RFU, TTC7A / Fold change vs veh, TTC7A / RFU, TMEM135 / Fold change vs veh, TMEM135 / RFU, DEPTOR / Fold change vs veh, DEPTOR / RFU, CPM / Fold change vs veh, CPM / RFU, DNAJB6 / Fold change vs veh, DNAJB6 / RFU, CACNA2D3 / Fold change vs veh, CACNA2D3 / RFU, DTX4 / Fold change vs veh, DTX4 / RFU, TFCP2 / Fold change vs veh, TFCP2 / RFU, GMCL1 /// GMCL1P1 / Fold change vs veh, GMCL1 /// GMCL1P1 / RFU, AEBP2 / Fold change vs veh, AEBP2 / RFU, SNHG1 /// SNORD22 /// SNORD25 /// SNORD26 /// SNORD27 /// SNORD28 /// SNORD29 /// SNORD31 / Fold change vs veh, SNHG1 /// SNORD22 /// SNORD25 /// SNORD26 /// SNORD27 /// SNORD28 /// SNORD29 /// SNORD31 / Fold change (Aza/veh), C12orf56 (ProbeSet 11735607_a_at) / Fold change (ACY-1035/veh), C12orf56 (ProbeSet 11735607_a_at) / Fold change (Aza/veh), FGFR1OP (ProbeSet 11751329_s_at) / Fold change (ACY-1035/veh), FGFR1OP (ProbeSet 11751329_s_at) / Fold change (Aza/veh), VPS36 (ProbeSet 11739960_a_at) / Fold change (ACY-1035/veh), VPS36 (ProbeSet 11739960_a_at) / RFU SYPL1 (11715823_x_at) / Fold change /veh SYPL1 (11715823_x_at) / RFU IGFBP7 (11715501_s_at) / Fold change /veh IGFBP7 (11715501_s_at) / RFU REEP3 (11722064_at) / Fold change /veh REEP3 (11722064_at) / RFU IGLL1 (11728026_x_at) / Fold change /veh IGLL1 (11728026_x_at): dose or concentration left out as unconfirmed
Conditions: ProbeSet 11724877_a_at; LIST D

Which “Fold change vs veh, AEBP2” value does the source give for Nc1ncn([C@@H]2O[C@H](CO)[C@@H](O)[C@H]2O)c(=O)n1 [azacitidine] here?
The value was 0.82.
